Measured values reported in ChEMBL document CHEMBL5236651, “Synthesis and antibacterial activity of novel 2‑fluoro ketolide antibiotics with 11,12‑quinoylalkyl side chains” (2023).
Values after ≈ are worked out from the molar mass of the structure shown.

Key:
Type in all cases: functional
Enterococcus faecalis [1] = test: Antibacterial activity against vancomycin-resistant Enterococcus faecalis ATCC 51575 assessed as inhibition of bacterial growth by CLSI based micro broth double dilution method
[2] = system: Staphylococcus epidermidis; test: Antibacterial activity against methicillin-sensitive Staphylococcus epidermidis 16-4 assessed as inhibition of bacterial growth by CLSI based micro broth double dilution method
Pseudomonas aeruginosa [3] = test: Antibacterial activity against Pseudomonas aeruginosa 16-11 assessed as inhibition of bacterial growth by CLSI based micro broth double dilution method
Enterococcus faecalis [4] = test: Antibacterial activity against vancomycin-sensitive Enterococcus faecalis […] assessed as inhibition of bacterial growth by CLSI based micro broth double dilution method
Streptococcus pyogenes [5] = test: Antibacterial activity against erythromycin-sensitive Streptococcus pyogenes ATCC 19615 assessed as inhibition of bacterial growth by CLSI based micro broth double dilution method
Staphylococcus aureus [6] = test: Antibacterial activity against methicillin-sensitive Staphylococcus aureus ATCC 29213 assessed as inhibition of bacterial growth by CLSI based micro broth double dilution method
Staphylococcus aureus [7] = test: Antibacterial activity against methicillin-sensitive Staphylococcus aureus 15 assessed as inhibition of bacterial growth by CLSI based micro broth double dilution method
Escherichia coli [8] = test: Antibacterial activity against Escherichia coli 16-7 assessed as inhibition of bacterial growth by CLSI based micro broth double dilution method
Staphylococcus aureus [9] = test: Antibacterial activity against methicillin-sensitive Staphylococcus aureus 16-1 assessed as inhibition of bacterial growth by CLSI based micro broth double dilution method
Escherichia coli [10] = test: Antibacterial activity against ESBL-negative Escherichia coli ATCC 25922 assessed as inhibition of bacterial growth by CLSI based micro broth double dilution method
[11] = system: Staphylococcus epidermidis; test: Antibacterial activity against methicillin-sensitive Staphylococcus epidermidis ATCC 12228 assessed as inhibition of bacterial growth by CLSI based micro broth double dilution method
Streptococcus pneumoniae [12] = test: Antibacterial activity against erythromycin-sensitive Streptococcus pneumoniae ATCC 49619 assessed as inhibition of bacterial growth by CLSI based micro broth double dilution method
Enterococcus faecalis [13] = test: Antibacterial activity against vancomycin-resistant Enterococcus faecalis ATCC 51299 assessed as inhibition of bacterial growth by CLSI based micro broth double dilution method
Streptococcus pneumoniae [14] = test: Antibacterial activity against erythromycin-resistant Streptococcus pneumoniae 12-3 assessed as inhibition of bacterial growth by CLSI based micro broth double dilution method
Escherichia coli [15] = test: Antibacterial activity against ESBL-positive Escherichia coli ATCC 35218 assessed as inhibition of bacterial growth by CLSI based micro broth double dilution method
Klebsiella pneumoniae [16] = test: Antibacterial activity against ESBL positive Klebsiella pneumoniae ATCC 700603 assessed as inhibition of bacterial growth by CLSI based micro broth double dilution method
Klebsiella pneumoniae [17] = test: Antibacterial activity against ESBL negative Klebsiella pneumoniae 16-2 assessed as inhibition of bacterial growth by CLSI based micro broth double dilution method
Streptococcus pyogenes [18] = test: Antibacterial activity against erythromycin-resistant Streptococcus pyogenes 12-1 assessed as inhibition of bacterial growth by CLSI based micro broth double dilution method
Pseudomonas aeruginosa [19] = test: Antibacterial activity against Pseudomonas aeruginosa PAO1 assessed as inhibition of bacterial growth by CLSI based micro broth double dilution method
Enterococcus faecalis [20] = test: Antibacterial activity against vancomycin-sensitive Enterococcus faecalis 16-6 assessed as inhibition of bacterial growth by CLSI based micro broth double dilution method
Pseudomonas aeruginosa [21] = test: Antibacterial activity against Pseudomonas aeruginosa ATCC 27853 assessed as inhibition of bacterial growth by CLSI based micro broth double dilution method
Klebsiella pneumoniae [22] = test: Antibacterial activity against ESBL negative Klebsiella pneumoniae 7 assessed as inhibition of bacterial growth by CLSI based micro broth double dilution method

Row | Compound | MIC (Enterococcus faecalis [1]) [µg/mL] | MIC [2] [µg/mL] | MIC (Pseudomonas aeruginosa [3]) [µg/mL] | MIC (Enterococcus faecalis [4]) [µg/mL] | MIC (Streptococcus pyogenes [5]) [µg/mL] | MIC (Staphylococcus aureus [6]) [µg/mL] | MIC (Staphylococcus aureus [7]) [µg/mL] | MIC (Escherichia coli [8]) [µg/mL] | MIC (Staphylococcus aureus [9]) [µg/mL] | MIC (Escherichia coli [10]) [µg/mL] | MIC [11] [µg/mL] | MIC (Streptococcus pneumoniae [12]) [µg/mL] | MIC (Enterococcus faecalis [13]) [µg/mL] | MIC (Streptococcus pneumoniae [14]) [µg/mL] | MIC (Escherichia coli [15]) [µg/mL] | MIC (Klebsiella pneumoniae [16]) [µg/mL] | MIC (Klebsiella pneumoniae [17]) [µg/mL] | MIC (Streptococcus pyogenes [18]) [µg/mL] | MIC (Pseudomonas aeruginosa [19]) [µg/mL] | MIC (Enterococcus faecalis [20]) [µg/mL] | other results
1 | CC[C@H]1OC(=O)[C@@](C)(F)C(=O)[C@H](C)[C@@H](O[C@@H]2O[C@H](C)C[C@H](N(C)C)[C@H]2O)[C@@](C)(OC)C[C@@H](C)C(=O)[C@H](C)[C@H]2N(CCCNc3cnc4ccccc4c3)C(=O)O[C@]12C | > 32 | 0.12 (≈ 0.147 µM) | 32 (≈ 39.3 µM) | 0.06 (≈ 0.0736 µM) | 0.12 (≈ 0.147 µM) | 0.12 (≈ 0.147 µM) | 0.12 (≈ 0.147 µM) | 32 (≈ 39.3 µM) | 0.12 (≈ 0.147 µM) | 16 (≈ 19.6 µM) | 0.12 (≈ 0.147 µM) | ≤ 0.016 | > 32 | ≤ 0.016 | 32 (≈ 39.3 µM) | > 32 | > 32 | 32 (≈ 39.3 µM) | 16 (≈ 19.6 µM) | > 32 | MIC (Pseudomonas aeruginosa [21]): 32 µg/mL (≈ 39.3 µM); MIC (Klebsiella pneumoniae [22]): > 32 µg/mL
2 | CC[C@H]1OC(=O)[C@@](C)(F)C(=O)[C@H](C)[C@@H](O[C@@H]2O[C@H](C)C[C@H](N(C)C)[C@H]2O)[C@@](C)(OC)C[C@@H](C)C(=O)[C@H](C)[C@H]2N(CCCN(C(=O)CCc3ccccc3)c3cnc4ccccc4c3)C(=O)O[C@]12C | > 32 | 4 (≈ 4.22 µM) | > 32 | 0.5 (≈ 0.528 µM) | 0.5 (≈ 0.528 µM) | 1 (≈ 1.06 µM) | 1 (≈ 1.06 µM) | > 32 | 1 (≈ 1.06 µM) | > 32 | 0.5 (≈ 0.528 µM) | ≤ 0.016 | > 32 | 0.06 (≈ 0.0633 µM) | > 32 | > 32 | > 32 | 16 (≈ 16.9 µM) | > 32 | > 32 | MIC (Pseudomonas aeruginosa [21]): > 32 µg/mL; MIC (Klebsiella pneumoniae [22]): > 32 µg/mL
3 | CC[C@H]1OC(=O)[C@@](C)(F)C(=O)[C@H](C)[C@@H](O[C@@H]2O[C@H](C)C[C@H](N(C)C)[C@H]2O)[C@@](C)(OC)C[C@@H](C)C(=O)[C@H](C)[C@H]2N(CCCN(C(=O)/C=C/c3ccccc3)c3cnc4ccccc4c3)C(=O)O[C@]12C | > 32 | 2 (≈ 2.12 µM) | > 32 | 0.5 (≈ 0.529 µM) | 0.25 (≈ 0.265 µM) | 1 (≈ 1.06 µM) | 1 (≈ 1.06 µM) | > 32 | 1 (≈ 1.06 µM) | > 32 | 1 (≈ 1.06 µM) | ≤ 0.016 | > 32 | 0.25 (≈ 0.265 µM) | > 32 | 32 (≈ 33.9 µM) | > 32 | 8 (≈ 8.46 µM) | > 32 | > 32 | MIC (Pseudomonas aeruginosa [21]): > 32 µg/mL; MIC (Klebsiella pneumoniae [22]): > 32 µg/mL
4 | CC[C@H]1OC(=O)[C@@](C)(F)C(=O)[C@H](C)[C@@H](O[C@@H]2O[C@H](C)C[C@H](N(C)C)[C@H]2O)[C@@](C)(OC)C[C@@H](C)C(=O)[C@H](C)[C@H]2N(CCCN(Cc3ccccc3)c3cnc4ccccc4c3)C(=O)O[C@]12C | > 32 | 1 (≈ 1.1 µM) | > 32 | 0.5 (≈ 0.552 µM) | 0.12 (≈ 0.133 µM) | 1 (≈ 1.1 µM) | 0.5 (≈ 0.552 µM) | > 32 | 0.5 (≈ 0.552 µM) | > 32 | 0.25 (≈ 0.276 µM) | 0.03 (≈ 0.0331 µM) | > 32 | 0.25 (≈ 0.276 µM) | > 32 | 32 (≈ 35.4 µM) | > 32 | 8 (≈ 8.84 µM) | > 32 | > 32 | MIC (Pseudomonas aeruginosa [21]): > 32 µg/mL; MIC (Klebsiella pneumoniae [22]): 8 µg/mL (≈ 8.84 µM)
5 | CC[C@H]1OC(=O)[C@@](C)(F)C(=O)[C@H](C)[C@@H](O[C@@H]2O[C@H](C)C[C@H](N(C)C)[C@H]2O)[C@@](C)(OC)C[C@@H](C)C(=O)[C@H](C)[C@H]2N(CCCN(C(C)=O)c3cnc4ccccc4c3)C(=O)O[C@]12C | > 32 | 1 (≈ 1.17 µM) | > 32 | 0.12 (≈ 0.14 µM) | 0.25 (≈ 0.292 µM) | 0.25 (≈ 0.292 µM) | 0.25 (≈ 0.292 µM) | > 32 | 0.25 (≈ 0.292 µM) | > 32 | 0.25 (≈ 0.292 µM) | 0.06 (≈ 0.07 µM) | > 32 | 0.25 (≈ 0.292 µM) | > 32 | 32 (≈ 37.3 µM) | > 32 | > 32 | > 32 | > 32 | MIC (Pseudomonas aeruginosa [21]): > 32 µg/mL; MIC (Klebsiella pneumoniae [22]): > 32 µg/mL
